Data set [1] is described as follows: Toxicity in nude mouse xenografted with human GEO cells assessed as body weight loss at 6.25 mg/kg, po administered for 3 days in presence of cetuximab at 0.125 mg/kg relative to control. In kind it is organism-based. As to conditions: in vivo, 72 h, time 3 day.
Data set [2] in a line: Plasma concentration in nude mouse xenografted with mouse IGF-1R-Sal cells at 3.125 mg/kg, po administered for 2 hrs by LC-MS/MS analysis. In kind it is ADME, organism-based.
Data set [3] can be described thus: Toxicity in nude mouse xenografted with human GEO cells assessed as body weight loss at 12.5 mg/kg, po administered for 3 days in presence of cetuximab at 0.125 mg/kg relative to control. The following applies: in vivo, 72 h, time 3 day. In kind it is organism-based.
The nature of data set [4]: Toxicity in nude mouse xenografted with human GEO cells assessed as mortality at 6.25 mg/kg, po administered for 3 days in presence of cetuximab at 0.125 mg/kg relative to control. In kind it is organism-based. The following applies: in vivo, time 3 day. (In xenograft studies the graft and the host belong to different species.)
A short description of data set [5]: Toxicity in nude mouse xenografted with human GEO cells assessed as mortality at 6.25 mg/kg, po administered for 17 days relative to control. In kind it is organism-based. The following applies: in vivo, time 17 day.
Data set [6] can be described thus: Toxicity in nude mouse xenografted with human GEO cells assessed as mortality at 25 mg/kg, po administered for 3 days in presence of cetuximab at 0.125 mg/kg relative to control. In kind it is organism-based. The following applies: in vivo, time 3 day.
Data set [7] is described as follows: Toxicity in nude mouse xenografted with human GEO cells assessed as body weight loss at 6.25 mg/kg, po administered for 3 days in presence of cetuximab at 0.25 mg/kg relative to control. The following applies: in vivo, 72 h, time 3 day. In kind it is organism-based.
The nature of data set [8]: Toxicity in nude mouse xenografted with human GEO cells assessed as body weight loss at 12.5 mg/kg, po administered for 3 days in presence of cetuximab at 0.25 mg/kg relative to control. In kind it is organism-based. The following applies: in vivo, 72 h, time 3 day.
In data set [9] the test system is GEO. Nature of the data set: Antitumor activity against human GEO cells xenografted in nude mouse assessed as tumor growth delay time at 12.5 mg/kg, po administered for 3 days in presence of cetuximab at 0.25 mg/kg relative to control. In kind it is functional. As to conditions: time 3 day.
Data set [10] concerns GEO. As to the kind of experiment: Antitumor activity against human GEO cells xenografted in nude mouse assessed as tumor growth inhibition at 12.5 mg/kg, po administered for 3 days in presence of cetuximab at 0.25 mg/kg relative to control. In kind it is functional. The following applies: 72 h, time 3 day, read-out: TGI.
Data set [11] concerns the target Protein kinase C alpha type (Homo sapiens, UniProt P17252). Nature of the data set: Inhibition of recombinant PKCalpha (unknown origin) incubated for 60 mins in presence of ATP by electrophoretic caliper fluorescence analysis.
In data set [12] the test system is GEO. Nature of the data set: Antitumor activity against human GEO cells xenografted in nude mouse assessed as tumor growth delay time at 6.25 mg/kg, po administered for 3 days in presence of cetuximab at 0.25 mg/kg relative to control. In kind it is functional. The following applies: time 3 day.
Another data set deals with RD1. Nature of the data set: Antitumor activity against human RD1 cells xenografted in nude mouse assessed as tumor growth inhibition at 50 mg/kg, po administered for 14 days relative to control. The following applies: 336 h, read-out: TGI.

One compound from ChEMBL document CHEMBL5678800 (Mol Cancer Ther, 2009) can be followed below.

Turning to `C[C@@]1(C(=O)Nc2ccc(F)nc2)CCCN1c1nc(Nc2cc(C3CC3)n[nH]2)c2cccn2n1` [BMS-754807], the Activity in data set [1] came out at 1.2 g; in data set [3] it was 0.4 g; in [7], 1.4 g; in data set [8], 1.2 g. Further, the concentration at 2 h in data set [2] amounted to 7 nM. In addition, the mortality at 72 h in data set [4] and in data set [6] was 0% each time. The mortality (in general, the percentage killed) at 408 h in data set [5] stood at 0%. The Time in the data set on GEO [9] came out at 38 days; in the data set with GEO [12], 23 days. Besides, the inhibition in vivo at 12.5 mg/kg in the data set with GEO [10] amounted to 88%. Besides, the IC50 (usually the concentration at which inhibition is half-maximal) in [11] came out at 2530 nM. In addition, the inhibition in vivo at 50 mg/kg with RD1 amounted to 58%.
